Experimental data from PubChem BioAssay (NCI).
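Where inhibition never reached the appropriate level, the endpoint shown equals the highest concentration tested. Otherwise, values were interpolated linearly from a five-concentration, 48-hour dose response in 96-well plates. At the GI50, growth is halved. TGI marks complete inhibition of growth.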

How the values were obtained:
Assay in all cases: DTP human tumour cell line panel, 48 h
MDA-MB-435 = tested on: MDA-MB-435
DU-145 prostate = tested on: DU-145 prostate
HCT-15 colon = tested on: HCT-15 colon
MDA-MB-231 breast = tested on: MDA-MB-231 breast
MOLT-4 leukemia = tested on: MOLT-4 leukemia
HCC-2998 colon = tested on: HCC-2998 colon
SW-620 colon = tested on: SW-620 colon
RPMI-8226 leukemia = tested on: RPMI-8226 leukemia
NCI/ADR-RES ovarian = tested on: NCI/ADR-RES ovarian
A549 NSCLC = tested on: A549 NSCLC
HOP-62 NSCLC = tested on: HOP-62 NSCLC
HT29 colon = tested on: HT29 colon
UACC-62 melanoma = tested on: UACC-62 melanoma
HL-60(TB) leukemia = tested on: HL-60(TB) leukemia
A498 renal = tested on: A498 renal

Structure (SMILES): O=C(Oc1ccc(C(c2c(O)c3ccccc3oc2=O)c2c(O)c3ccccc3oc2=O)cc1)c1ccc(C(=O)c2ccccc2)cc1
- TGI (MDA-MB-435): 42.3 µM
- TGI (DU-145 prostate): > 100 µM
- TGI (HCT-15 colon): 89.4 µM
- TGI (MDA-MB-231 breast): > 100 µM
- TGI (MOLT-4 leukemia): 41.3 µM
- TGI (HCC-2998 colon): 36 µM
- TGI (SW-620 colon): > 100 µM
- TGI (RPMI-8226 leukemia): 56.5 µM
- TGI (NCI/ADR-RES ovarian): 34.8 µM
- TGI (A549 NSCLC): 55.8 µM
- TGI (HOP-62 NSCLC): 69.9 µM
- TGI (HT29 colon): 31.8 µM
- TGI (UACC-62 melanoma): 41 µM

Structure (SMILES): CC(=O)[CH-]C(=O)c1ccccc1.CC(=O)[CH-]C(=O)c1ccccc1.CC[C@H](CCC(C)[C@H]1CCC2[C@@H]3CC=C4C[C@@H]([O-])CC[C@]4(C)C3CC[C@@]21C)C(C)C.CC[C@H](CCC(C)[C@H]1CCC2[C@@H]3CC=C4C[C@@H]([O-])CC[C@]4(C)C3CC[C@@]21C)C(C)C.Cl.[Ti+4] (stereo not given in full)
- TGI (HCT-15 colon): > 25 µM
- TGI (MOLT-4 leukemia): > 25 µM
- TGI (HCC-2998 colon): > 25 µM
- TGI (HL-60(TB) leukemia): > 25 µM
- GI50 (A498 renal): > 25 µM
- TGI (A498 renal): > 25 µM
- TGI (SW-620 colon): > 25 µM
- TGI (RPMI-8226 leukemia): > 25 µM
- TGI (A549 NSCLC): > 25 µM
- TGI (HOP-62 NSCLC): > 25 µM
- TGI (HT29 colon): > 25 µM
- GI50 (UACC-62 melanoma): > 25 µM
- TGI (UACC-62 melanoma): > 25 µM

Structure (SMILES): C=CCc1cc(OC)c(O)c(C(=O)/C=C/c2ccc(OC)c(OC)c2)c1
- TGI (HCC-2998 colon): 38.6 µM
- TGI (HL-60(TB) leukemia): 38 µM
- TGI (A498 renal): 39.7 µM
- TGI (SW-620 colon): 97.1 µM
- TGI (RPMI-8226 leukemia): 3.31 µM
- TGI (A549 NSCLC): > 100 µM
- TGI (HT29 colon): 33.1 µM
- TGI (UACC-62 melanoma): 52.2 µM

Structure (SMILES): Cc1cc(N(CCC#N)CCC#N)ccc1/C(Sc1ccccc1)=C(\NC(=O)/C=C/c1ccccc1)C(=O)Sc1ccccc1
- TGI (HCT-15 colon): 26.4 µM
- TGI (MOLT-4 leukemia): 8.27 µM
- TGI (HCC-2998 colon): 23.9 µM
- TGI (HL-60(TB) leukemia): 5.08 µM
- TGI (A498 renal): 16.5 µM
- TGI (SW-620 colon): 15.3 µM
- TGI (RPMI-8226 leukemia): 6.07 µM
- TGI (A549 NSCLC): 16 µM
- TGI (HOP-62 NSCLC): 8.53 µM
- TGI (HT29 colon): 11.8 µM
- TGI (UACC-62 melanoma): 12.3 µM

Structure (SMILES): O=C(O)CCC1C(=O)C2CCN1CC2 (stereo not given)
- TGI (MDA-MB-435): > 100 µM
- TGI (DU-145 prostate): > 100 µM
- TGI (HCT-15 colon): > 100 µM
- TGI (MDA-MB-231 breast): > 100 µM
- TGI (MOLT-4 leukemia): > 100 µM
- TGI (HCC-2998 colon): > 100 µM
- TGI (HL-60(TB) leukemia): > 100 µM
- TGI (A498 renal): > 100 µM
- TGI (SW-620 colon): > 100 µM
- TGI (RPMI-8226 leukemia): > 100 µM
- TGI (NCI/ADR-RES ovarian): > 100 µM
- TGI (A549 NSCLC): > 100 µM
- TGI (HOP-62 NSCLC): > 100 µM
- TGI (HT29 colon): > 100 µM
- TGI (UACC-62 melanoma): > 100 µM

Structure (SMILES): C#CCC(O)c1ccc(OC)c(OCc2ccccc2)c1 (stereo not given)
- TGI (MDA-MB-435): > 100 µM
- TGI (DU-145 prostate): > 100 µM
- TGI (HCT-15 colon): > 100 µM
- TGI (MDA-MB-231 breast): > 100 µM
- TGI (MOLT-4 leukemia): 56.6 µM
- TGI (HCC-2998 colon): > 100 µM
- TGI (HL-60(TB) leukemia): > 100 µM
- TGI (A498 renal): > 100 µM
- TGI (RPMI-8226 leukemia): > 100 µM
- TGI (NCI/ADR-RES ovarian): > 100 µM
- TGI (A549 NSCLC): > 100 µM
- TGI (HOP-62 NSCLC): > 100 µM
- TGI (HT29 colon): > 100 µM
- TGI (UACC-62 melanoma): > 100 µM

Structure (SMILES): S=c1[nH]nc(COc2ccc(Cl)cc2)n1-c1ccccc1
- TGI (MDA-MB-435): > 100 µM
- TGI (DU-145 prostate): > 100 µM
- TGI (HCT-15 colon): > 100 µM
- TGI (MDA-MB-231 breast): > 100 µM
- TGI (MOLT-4 leukemia): > 100 µM
- TGI (HCC-2998 colon): > 100 µM
- TGI (HL-60(TB) leukemia): > 100 µM
- TGI (A498 renal): > 100 µM
- TGI (SW-620 colon): > 100 µM
- TGI (NCI/ADR-RES ovarian): > 100 µM
- TGI (A549 NSCLC): > 100 µM
- TGI (HOP-62 NSCLC): > 100 µM
- TGI (HT29 colon): > 100 µM
- TGI (UACC-62 melanoma): > 100 µM

Structure (SMILES): CC1(C)COC(c2cccc(C(O)c3ccc(Cl)cc3)c2)=N1 (stereo not given)
- TGI (MDA-MB-435): 67.3 µM
- TGI (DU-145 prostate): > 100 µM
- TGI (MDA-MB-231 breast): > 100 µM
- TGI (MOLT-4 leukemia): 59.3 µM
- TGI (HCC-2998 colon): 64.7 µM
- TGI (HL-60(TB) leukemia): > 100 µM
- TGI (SW-620 colon): > 100 µM
- TGI (RPMI-8226 leukemia): 89.1 µM
- TGI (NCI/ADR-RES ovarian): 77.2 µM
- TGI (HOP-62 NSCLC): 88.6 µM
- TGI (HT29 colon): 37.2 µM
- TGI (UACC-62 melanoma): 44.9 µM
